The source of these data is patent US7781565B2 (priority 2006, dated 2010).

In the test the test system is NCI-60 cell lines. The format is cell-based, human.
Turning to QMQGRAV, the “Cell Line with which the peptide (and its tripeptide motif) is associated” value (“Cell Line with which the peptide” below) was “H226-Lung”. AGSVTEQ: the “Cell Line the peptide is associated with (peptide recovered from phage library selection on this NCI-60 cell line)” value is reported as “UO31 Renal”.

In the case of SNGLRVV, the “Cell Line the peptide is associated with (peptide recovered from phage library selection on this NCI-60 cell line)” value is given as “ACHN Renal”.

GLGAVGW: the “Cell Line (NCI-60 cell line the peptide is associated with)” value is reported as “HT-29 Colon”.

Regarding SAVSESP, the “Cell Line (NCI-60 cell line the peptide and its motif are associated with)” value is “SK-OV-3-3 Ovarian”. As to RAAVGAR, the “Cell Line with which the peptide” value is “H23-Lung”.

As for GVSGLSR, the “Cell Line (NCI-60 cell line the peptide and its motif are associated with)” value is “DU-145 Prostate”. As for RGSVASA, the “Cell Line (NCI-60 cell line the peptide is associated with)” value is “HT-29 Colon”. On to RPAGGRT, for which the “Cell Line (NCI-60 cell line the peptide and its motif are associated with)” value is “PC3 Prostate”.

Take GGGSWLI: the “Cell Line with which the peptide” value is “EKVX-Lung”. RASCALT: the “Cell Line with which the peptide” value is “HL-60-Leukemia”. With MRGVARK, the “Cell Line (NCI-60 cell line the peptide and its motif are associated with)” value is reported as “A498 Renal”. For VRVGRLS, the “Cell Line (NCI-60 cell line the peptide and its motif are associated with)” value was “UACC62 Melanoma”.

With VGVRFSR, the “Cell Line (NCI-60 cell line the peptide and its motif are associated with)” value is recorded as “SK-MEL-28 Melanoma”. Turning to DAGGMDL, the “Cell Line (NCI-60 cell line the peptide is associated with)” value is on record as “HT-29 Colon”. Turning to RRSGAGG, the “Cell Line the peptide is associated with (peptide recovered from phage library selection on this NCI-60 cell line)” value is “UO31 Renal”. As to LVGSSRV, the “Cell Line (NCI-60 cell line the peptide and its motif are associated with)” value is “SK-OV-3-3 Ovarian”. Consider RRGSLMF, for which the “Cell Line (NCI-60 cell line the peptide is associated with)” value is reported as “SW620-Colon”. Consider EFTRRAS, for which the “Cell Line with which the peptide” value is reported as “A549-Lung”. The same measure, in the same setting: the value for QAGSFLR was “EKVX-Lung”; that for SQSGGRH was “Molt-4-Leukemia”. With NAGRGAS, the “Cell Line the peptide is associated with (peptide recovered from phage library selection on this NCI-60 cell line)” value was “TK-10 Renal”. Consider ARAIGLG, for which the “Cell Line with which the peptide” value is “Molt-4-Leukemia”.

Regarding VAGRLQM, the “Cell Line (NCI-60 cell line the peptide and its motif are associated with)” value was “OVCAR-4 Ovarian”. In the case of FRASSEV, the “Cell Line with which the peptide” value is “Hop-62-Lung”. For RRSGLGD, the “Cell Line (NCI-60 cell line the peptide is associated with)” value was “HCC-2998-Colon”. As to GESGRLS, the “Cell Line with which the peptide” value is given as “Hop-92-Lung”. Same read-out and setting: the same measure for LLRRAVF: “Hop-62-Lung”. On to GGVLGSD, for which the “Cell Line (NCI-60 cell line the peptide is associated with)” value is listed as “LOX-IMVI Melanoma”.

Regarding HAGSRAS, the “Cell Line (NCI-60 cell line the peptide and its motif are associated with)” value was “IGROV1 Ovarian”. With SARLSHV, the “Cell Line (NCI-60 cell line the peptide and its motif are associated with)” value is listed as “UACC 257 Melanoma”. Regarding HAPGLRV, the “Cell Line (NCI-60 cell line the peptide is associated with)” value is recorded as “MALME-3M Melanoma”.

Regarding TRGDAVS, the “Cell Line (NCI-60 cell line the peptide is associated with)” value is “SF-295 CNS”. The same measure, in the same setting: the value for GFASLLR was “HCT-15 Colon”. As to GSVLHVS, the “Cell Line the peptide is associated with (peptide recovered from phage library selection on this NCI-60 cell line)” value was “HS 578 T Breast”. For the substance AGGQSER, the “Cell Line with which the peptide” value is “H226-Lung”. FGVSGGS: the “Cell Line the peptide is associated with (peptide recovered from phage library selection on this NCI-60 cell line)” value is “MDA-MB-231 Breast”.

Take SHRVSDS: the “Cell Line with which the peptide” value is recorded as “K-562-Leukemia”. Still for that read-out and setting: the same measure for VMGGPSL: “Hop-62-Lung”. Consider GVYWLRS, for which the “Cell Line the peptide is associated with (peptide recovered from phage library selection on this NCI-60 cell line)” value is on record as “TK-10 Renal”. For the substance NRSSGRR, the “Cell Line with which the peptide” value was “SR Leukemia”. Take ELRRLLS: the “Cell Line the peptide is associated with (peptide recovered from phage library selection on this NCI-60 cell line)” value is on record as “TK-10 Renal”. As to RAAGSAG, the “Cell Line (NCI-60 cell line the peptide and its motif are associated with)” value is reported as “IGROV1 Ovarian”. PAFGPSR: the “Cell Line with which the peptide” value is given as “RPMI-8226-Leukemia”. Turning to GRLRASL, the “Cell Line (NCI-60 cell line the peptide is associated with)” value was “SF-295 CNS”. Consider YVGLVVS, for which the “Cell Line with which the peptide” value is listed as “SR Leukemia”. On to GTLRVGS, for which the “Cell Line (NCI-60 cell line the peptide is associated with)” value is given as “HT-29 Colon”. On to SSGSSNG, for which the “Cell Line with which the peptide” value was “K-562-Leukemia”.

In the case of FRASLQY, the “Cell Line with which the peptide” value is given as “Hop-62-Lung”. In the case of TTLLSRQ, the “Cell Line (NCI-60 cell line the peptide and its motif are associated with)” value was “OVCAR-5 Ovarian”. With PRGLGVG, the “Cell Line (NCI-60 cell line the peptide and its motif are associated with)” value is “SK-MEL-2 Melanoma”. For the substance LGQCGRV, the “Cell Line with which the peptide” value is “HL-60-Leukemia”. Consider GVRTAGP, for which the “Cell Line with which the peptide” value is listed as “A549-Lung”. For the substance AATRAGS, the “Cell Line (NCI-60 cell line the peptide and its motif are associated with)” value is recorded as “UACC 257 Melanoma”. Regarding GSGSVRT, the “Cell Line the peptide is associated with (peptide recovered from phage library selection on this NCI-60 cell line)” value is reported as “BT-549 Breast”. On to AARGELR, for which the “Cell Line (NCI-60 cell line the peptide and its motif are associated with)” value was “UACC62 Melanoma”. Take AGLQHAV: the “Cell Line (NCI-60 cell line the peptide is associated with)” value is “HCT-15 Colon”. In the case of EAVSGRR, the “Cell Line the peptide is associated with (peptide recovered from phage library selection on this NCI-60 cell line)” value is recorded as “HS 578 T Breast”. With GHSERLS, the “Cell Line the peptide is associated with (peptide recovered from phage library selection on this NCI-60 cell line)” value is listed as “T-47D Breast”.

In the case of GLWYRAV, the “Cell Line (NCI-60 cell line the peptide and its motif are associated with)” value is “SK-MEL-28 Melanoma”. Regarding GVLGCDG, the “Cell Line (NCI-60 cell line the peptide and its motif are associated with)” value is “PC3 Prostate”. For the substance SRYGVLV, the “Cell Line with which the peptide” value is “EKVX-Lung”.

Consider DWGRSSF, for which the “Cell Line with which the peptide” value is “A549-Lung”. Turning to FQRSGRL, the “Cell Line (NCI-60 cell line the peptide and its motif are associated with)” value is given as “SK-MEL-28 Melanoma”. On to ADGRLRY, for which the “Cell Line (NCI-60 cell line the peptide is associated with)” value is given as “KM-12C Colon”.

In the case of SGPAGSF, the “Cell Line (NCI-60 cell line the peptide and its motif are associated with)” value is on record as “OVCAR-4 Ovarian”.

For VGVMGGR, the “Cell Line the peptide is associated with (peptide recovered from phage library selection on this NCI-60 cell line)” value was “CAIK-1 Renal”. For ASLHHRR, the “Cell Line (NCI-60 cell line the peptide is associated with)” value is recorded as “SW620-Colon”.

With GCGGVRD, the “Cell Line (NCI-60 cell line the peptide is associated with)” value is recorded as “HT-29 Colon”.

For RVSNEAL, the “Cell Line (NCI-60 cell line the peptide and its motif are associated with)” value is “SK-OV-3-3 Ovarian”.

Take AAGGLLV: the “Cell Line (NCI-60 cell line the peptide is associated with)” value is reported as “HCC-2998-Colon”. Take AALLRAV: the “Cell Line (NCI-60 cell line the peptide and its motif are associated with)” value is reported as “OVCAR-4 Ovarian”. For AHYTLRS, the “Cell Line (NCI-60 cell line the peptide is associated with)” value was “COLO-205-Colon”.

Turning to GLGALRW, the “Cell Line the peptide is associated with (peptide recovered from phage library selection on this NCI-60 cell line)” value was “NCI/ADR-RES Breast”.

Consider LRSVGSW, for which the “Cell Line (NCI-60 cell line the peptide is associated with)” value was “HCT-15 Colon”. On the same count and under the same terms, the same measure for ALAGGGL: “SNB-75 CNS”. As to GLRKAGF, the “Cell Line with which the peptide” value is recorded as “SR Leukemia”. As to AATLLSF, the “Cell Line with which the peptide” value is recorded as “K-562-Leukemia”. Consider NMGAVGS, for which the “Cell Line (NCI-60 cell line the peptide and its motif are associated with)” value was “DU-145 Prostate”. In the case of PGLRGPA, the “Cell Line (NCI-60 cell line the peptide and its motif are associated with)” value was “OVCAR-4 Ovarian”. Still for that read-out and setting: the value for SGPGRLP was “M14 Melanoma”; that for WYGGRGN was “OVCAR-4 Ovarian”. With RLRVSVR, the “Cell Line the peptide is associated with (peptide recovered from phage library selection on this NCI-60 cell line)” value is on record as “CAIK-1 Renal”.
